Values quoted from earlier work in US12246097B2, “Nanoparticle vaccine adjuvant and methods of use thereof” (Massachusetts Institute of Technology, priority 2018, dated 2025).

System: chick embryo eggs
Details: as measured by lethal dose in chick embryo eggs

Substance: 4′-monophosporyl lipid A [MPLA]
- toxicity reduced by a factor (relative to LPS): more than 1000
